Data from ChEMBL document CHEMBL1201862, “PubChem BioAssay data set” (2004).
Activity calls are given as the source filed them.

How the values were obtained:
[1] = molecular target: T1, High affinity choline transporter 1 (Homo sapiens, UniProt Q9GZV3); test: human choline transporter blockers, potency – cell-based, 5-point CRC, membrane potential dye, dose response (AID 504840); format: functional
T1 sequence (Q9GZV3 whole entry): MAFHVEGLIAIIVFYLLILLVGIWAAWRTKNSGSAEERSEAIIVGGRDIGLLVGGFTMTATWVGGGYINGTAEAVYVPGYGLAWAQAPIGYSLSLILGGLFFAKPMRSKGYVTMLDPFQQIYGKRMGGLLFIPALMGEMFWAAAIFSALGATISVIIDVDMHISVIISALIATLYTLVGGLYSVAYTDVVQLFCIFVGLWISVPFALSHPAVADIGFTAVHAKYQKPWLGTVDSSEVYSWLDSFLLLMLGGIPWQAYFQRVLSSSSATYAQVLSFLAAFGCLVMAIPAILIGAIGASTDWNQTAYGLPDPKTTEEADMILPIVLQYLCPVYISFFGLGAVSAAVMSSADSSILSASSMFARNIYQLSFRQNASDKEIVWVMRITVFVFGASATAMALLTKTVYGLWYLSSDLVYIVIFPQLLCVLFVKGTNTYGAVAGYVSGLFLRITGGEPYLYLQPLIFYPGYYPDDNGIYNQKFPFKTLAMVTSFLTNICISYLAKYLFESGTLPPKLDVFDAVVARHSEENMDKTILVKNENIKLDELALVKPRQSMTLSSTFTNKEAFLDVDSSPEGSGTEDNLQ

[2] = molecular target: T2, Microphthalmia-associated transcription factor (Homo sapiens, UniProt O75030); test: reducers of TRPM1 reporter luminescence, concentration series – cell-based, SK-MEL-5, cherry-picked, set 3, MITF inhibitor project, dose response (AID 493073); format: functional;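 also: SK-MEL-5 melanoma cells with luciferase driven by the MITF target TRPM1 promoter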
T2 sequence (O75030 whole entry): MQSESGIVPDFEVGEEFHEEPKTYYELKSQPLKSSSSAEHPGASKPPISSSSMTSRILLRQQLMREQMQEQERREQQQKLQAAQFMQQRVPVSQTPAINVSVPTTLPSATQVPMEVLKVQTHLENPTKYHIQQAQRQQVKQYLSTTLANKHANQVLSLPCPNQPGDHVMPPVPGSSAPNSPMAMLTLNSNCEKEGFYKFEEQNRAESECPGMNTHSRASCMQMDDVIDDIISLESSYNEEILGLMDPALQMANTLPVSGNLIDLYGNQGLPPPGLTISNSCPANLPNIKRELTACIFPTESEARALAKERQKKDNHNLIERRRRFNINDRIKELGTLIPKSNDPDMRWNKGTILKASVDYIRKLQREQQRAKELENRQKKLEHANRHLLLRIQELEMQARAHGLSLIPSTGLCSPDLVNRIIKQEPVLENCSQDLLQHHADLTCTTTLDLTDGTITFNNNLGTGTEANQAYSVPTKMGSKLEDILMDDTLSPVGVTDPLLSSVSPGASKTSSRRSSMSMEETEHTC

[3] = HepG2 cell cytotoxicity, dose response, cytotoxicity control for non-replicating M. tuberculosis project (AID 489018); format: functional; details: Mycobacterium tuberculosis
[4] = THP-1 cell cytotoxicity, dose response, cytotoxicity control for non-replicating M. tuberculosis project (AID 489025); format: functional
[5] = alpha-synuclein stem-loop luciferase translation blockers – H4 neuroglioma cells, luminescence, confirmation (AID 1988); format: functional, cell-based
[6] = microbe, parasite or virus in culture; format: functional; details: Mycobacterium tuberculosis
[7] = tested on: Streptococcus sp. 'group A'; test: Streptococcus pyogenes SK(-)GAS viability under kanamycin – luminescence, BacTiterGlo, confirmation, counter-screen for streptokinase expression inhibitor project, dose response (AID 1900); format: functional, organism-based
[8] = Trypanosoma cruzi growth suppression in host cells – NIH3T3 host cells, beta-gal luminescence, confirmation (AID 2044); format: functional, cell-based;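 also: intracellular parasites grown in NIH/3T3 mouse fibroblasts as host cells; luminescent beta-galactosidase reporter signal from transgenic T. cruzi replicating inside host cells; inhibitors lower the luminescence signal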
cells [9] = format: functional, cell-based
Streptokinase A = molecular target: T3, Streptokinase A (Streptococcus pyogenes serotype M1, UniProt P10520); test: viability-normalized secreted streptokinase activity reduction – plasminogen activation absorbance, OD405, dose response (AID 1914); format: functional, Streptococcus pyogenes M1 GAS;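 also: secreted streptokinase activity via plasminogen activation per viability signal from cell pellet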
T3 sequence (P10520 whole entry): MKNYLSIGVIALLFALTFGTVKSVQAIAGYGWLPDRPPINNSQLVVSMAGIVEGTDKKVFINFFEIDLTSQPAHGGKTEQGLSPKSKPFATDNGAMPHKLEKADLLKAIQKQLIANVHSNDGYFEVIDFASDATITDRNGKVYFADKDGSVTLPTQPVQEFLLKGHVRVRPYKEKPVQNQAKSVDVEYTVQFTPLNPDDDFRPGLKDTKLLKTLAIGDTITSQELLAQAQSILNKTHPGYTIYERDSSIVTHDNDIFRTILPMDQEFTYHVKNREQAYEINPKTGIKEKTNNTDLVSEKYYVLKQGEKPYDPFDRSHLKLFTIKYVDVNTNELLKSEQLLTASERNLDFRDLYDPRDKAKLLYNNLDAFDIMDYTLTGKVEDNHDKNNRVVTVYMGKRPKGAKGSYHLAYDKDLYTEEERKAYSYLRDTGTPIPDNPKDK

[10] = Luminescence Cell-Based Dose Response HTS to Identify Inhibitors of 5'UTR Stem-Loop Driven Prion Protein mRNA Translation in H4 Neuroglioblastoma Cells. [Related pubchem assays: 1827 (Project Summary), 1813 (Primary HTS)]; format: functional
[11] = Vero E6 cell cytotoxicity, dose response, cytotoxicity control for non-replicating M. tuberculosis project, secondary assay (AID 492998); format: functional, VeroE6; details: Vero C1008
[12] = luciferase reporter signal suppression in cells – H4 neuroglioma cells, luminescence, dose response (AID 1990); format: functional, cell-based
[13] = NIH3T3 cell viability loss – ATP luminescence, mouse fibroblasts, counter-screen, dose response (AID 2010); format: functional, cell-based;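 also: cells exposed to compound for about 90 hours before reading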
cells [14] = format: functional
Streptococcus = test: GAS UMAA2166 growth inhibition – luminescence, BacTiterGlo, counter-screen for streptokinase expression inhibitor project, dose response (AID 1915); format: functional, organism-based;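 also: potency for reduction of bacterial viability or growth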
cells [15] = format: functional, cell-based; remark: listed apart in the source
[16] = viability of PTEN-deleted HCT116 cells – cell-based, HCT116 PTEN knockout, dose response (AID 1047); format: functional;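 also: HCT116 colon tumor cells with PTEN knocked out; cells exposed to compound for 60 hours before readout; potency for loss of cell viability measured by luminescence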
[17] = viability of HCT116 lacking mutant beta-catenin – cell-based, human colon tumor, dose response (AID 1045); format: functional;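 also: HCT116 colon tumor cells with beta catenin knocked out; cells exposed to compound for 60 hours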
INS1 = test: INS-1E survival protection against cytokine death – cell-based, luminescence, retest, dose response (AID 449756); format: functional; details: Rattus norvegicus;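 also: cell death triggered by IL-1 beta plus TNF-alpha plus IFN-gamma mixture; protective hits raise ATP signal compared with cytokine alone wells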

For `Cc1ccc(NC(S)=NNC(=O)C2CC2c2ccc(C)cc2)cc1` (centres undefined), the IC50 [1] was 13.2 µM (active).
With `O=C(NC(=S)NCc1ccccc1)c1ccccc1` the AC50 [2] was 22.1 µM (active).
For `Cc1nn(-c2ccccc2)c(C)c1C(=O)OCC(=O)NC(=O)NC1CCCC1`, the IC50 [1] was 14.5 µM (active).
In the case of `Nc1cccn2c(-c3ccc(Cl)cc3)cnc12`, the CC50 [3] is reported as 19.1 µM (active).
With `COC(=O)/C(=C/c1c[nH]c2ccccc12)[N+](=O)[O-]` the IC50 [1] was 0.724 µM (active).
For `Cc1nnc(-c2ccccc2)c(=O)n1/N=C/c1c(O)ccc2ccccc12`, the CC50 [4] was 3.63 µM (active), the EC50 [5] was > 120 µM (not active) and the CC50 [6] was 18.9 µM (active). The EC50 [7] was 2.7 µM (active), the EC50 [8] was 1.16 µM (active) and the EC50 (cells [9]) was 25.7 µM (active). The EC50 (Streptokinase A) was > 150 µM (not active), the EC50 [10] was 9.49 µM (active) and the CC50 [11] was 8.43 µM (active). For the same compound, the EC50 [12] was > 120 µM (not active), the EC50 [13] was 1.97 µM (active) and the IC50 (cells [14]) was 35.3 µM (active). For the same compound, the CC50 [3] was > 20 µM (active), the EC50 (Streptococcus) was 36.2 µM (active) and the EC50 (cells [15]) was > 350 µM (not active).
For `Cn1c(SCC(=O)N/N=C/c2ccc([N+](=O)[O-])s2)nnc1-c1ccccc1`, the AC50 [2] was 4.28 µM (active), the EC50 [8] was 0.634 µM (active) and the EC50 [16] was 4.9 µM (active). The EC50 [17] was 4.99 µM (active), the EC50 [13] was 19.8 µM (active) and the AC50 (INS1) was 3.5 µM (active).
With `COc1ccc(/C(C)=N/Nc2ncc(Cl)cc2Cl)c(O)c1` the CC50 [4] was 24.9 µM (active), the CC50 [11] was > 20 µM (active) and the IC50 (cells [14]) was 2.19 µM (active). The CC50 [3] was 19.3 µM (active).
With `Cc1nnsc1C(=O)N/N=C/c1ccc2ccccc2c1O` the CC50 [4] was < 0.078 µM (active), the EC50 (cells [9]) was 6.43 µM (active) and the CC50 [11] was 0.09 µM (active). The IC50 (cells [14]) was > 50 µM (active), the CC50 [3] was 1.51 µM (active) and the EC50 (cells [15]) was 35.8 µM (active). For the same compound, the AC50 (INS1) was 0.321 µM (active).
For `COc1ccc(C(=O)NC(C)c2nccs2)cc1OC1CCN(C(C)C)CC1` (centres undefined), the IC50 [1] was 12.9 µM (active).
In the case of `COc1cc2nc(SCC(=O)NCc3ccco3)n(Cc3ccc(Cl)cc3)c(=O)c2cc1OC`, the AC50 [2] is reported as 13.2 µM (active).
For `O=S(=O)(c1ccc(N2CCCC2)nc1)N1CCCC1`, the IC50 [1] was 8.93 µM (active).
For `CCc1cc(CC)c(/C=N/NC(N)=O)c(CC)c1/C=N/NC(N)=O`, the IC50 [1] was 11.1 µM (active).
With `CN(C)CCCn1c(=O)n(C2CCCCC2)c(=O)c2c3c(sc21)CCCCC3` the IC50 [1] was 8.71 µM (active), the CC50 [4] was 23.8 µM (active) and the IC50 (cells [14]) was 24.9 µM (active).
